# Source: patent publication US9346786B2, “Pyrrolidine compounds” (Hoffmann-La Roche Inc., priority 2009, dated 2016)
# Target: recombinant human NK3 receptor (Homo sapiens (Human), UniProt P29371)
# Assay: biochemical
# Type: binding
# Details: [3H]SR142801, membranes of HEK293 cells transiently expressing recombinant human NK3 receptor; read-out: Data Ki (hNK-3 receptor affinity)
# Procedure: [^3H]SR142801 Competition Binding Assay
# hNK3 receptor binding experiment were performed using [^3H]SR142801 (Catalog No. TRK1035, specific activity: 74.0 Ci/mmol, Amersham, GE Healthcare UK limited, Buckinghamshire, UK) and membrane isolated from HEK293 cells transiently expressing recombinant human NK3 receptor. After thawing, the membrane homogenates were centrifuged at 48,000×g for […] at 4° C., the pellets were resuspended in the 50 mM Tris-HCl, 4 mM MnCl2, 1 μM phosphoramidon, 0.1% BSA binding buffer at pH 7.4 to a final assay concentration of 5 μg protein/well. For inhibition experiments, membranes were incubated with [^3H]SR142801 at a concentration equal to KD value of radioligand and 10 concentrations of the inhibitory compound (0.0003-10 μM) (in a total reaction volume of 500 μl) for 75 min at room temperature (RT). At the end of the incubation, membranes were filtered onto unitfilter (96-well white microplate with bonded GF/C filter preincubated 1 h in 0.3% PEI+0.3% BSA, Packard BioScience, Meriden, Conn.) with a Filtermate 196 harvester (Packard BioScience) and washed 4 times with ice-cold 50 mM Tris-HCl, pH 7.4 buffer. Nonspecific binding was measured in the presence of 10 μM SB222200 for both radioligands. The radioactivity on the filter was counted (5 min) on a Packard Top-count microplate scintillation counter with quenching correction after addition of 45 μl of microscint 40 (Canberra Packard S.A., Zürich, Switzerland) and shaking for 1 h. Inhibition curves were fitted according to the Hill equation: y=100/(1+(x/IC50)^nH), where nH=slope factor using Excel-fit 4 software (Microsoft). IC50 values were derived from the inhibition curve and the affinity constant (Ki) values were calculated using the Cheng-Prussoff equation Ki=IC50/(1+[L]/KD) where [L] is the concentration of radioligand and KD is its dissociation constant at the receptor, derived from the saturation isotherm. All experiments were performed in duplicate and the mean±standard error (SEM) of the individual Ki values was calculated.
# Sequence of recombinant human NK3 receptor (P29371 whole entry): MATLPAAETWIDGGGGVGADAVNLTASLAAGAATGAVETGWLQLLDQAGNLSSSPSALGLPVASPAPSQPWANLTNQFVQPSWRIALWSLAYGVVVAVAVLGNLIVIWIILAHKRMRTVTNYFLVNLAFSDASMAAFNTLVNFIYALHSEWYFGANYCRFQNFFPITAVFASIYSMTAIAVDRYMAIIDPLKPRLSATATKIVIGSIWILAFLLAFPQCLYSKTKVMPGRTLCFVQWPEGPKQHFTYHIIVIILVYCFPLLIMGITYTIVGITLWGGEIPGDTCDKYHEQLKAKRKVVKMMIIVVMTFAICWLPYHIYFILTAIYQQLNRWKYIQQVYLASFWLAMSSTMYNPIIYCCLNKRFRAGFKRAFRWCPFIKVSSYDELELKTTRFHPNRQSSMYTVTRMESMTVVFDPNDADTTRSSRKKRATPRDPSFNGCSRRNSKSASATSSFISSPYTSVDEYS
row,Compound,Ki
1,"CCN(C(=O)Oc1ccc(F)cc1)[C@@H]1CN(C(=O)C2CCN(c3ccc(C#N)nc3)CC2)C[C@H]1c1ccc(Cl)c(F)c1 [Example 43, [(3S,4R)-4-(4-Chloro-3-fluoro-phenyl)-1-(6′-cyano-3,4,5,6-tetrahydro-2H-[1,3′]bipyridinyl-4-carbonyl)-pyrrolidin-3-yl]-ethyl-carbamic acid 4-fluoro-phenyl ester]",0.3 nM
2,"CCN(C(=O)Oc1ccc(F)cc1)[C@@H]1CN(C(=O)C2CCN(C(=O)C3(C)CC3)CC2)C[C@H]1c1ccc(Cl)c(F)c1 [Example 44, {(3S,4R)-4-(4-Chloro-3-fluoro-phenyl)-1-[1-(1-methyl-cyclopropanecarbonyl)-piperidine-4-carbonyl]-pyrrolidin-3-yl}-ethyl-carbamic acid 4-fluoro-phenyl ester]",2 nM
3,"CCN(C(=O)Oc1ccc(F)cc1)[C@@H]1CN(C(=O)C2CCN(c3ccc(F)cn3)CC2)C[C@H]1c1ccc(Cl)c(F)c1 [Example 46, [(3S,4R)-4-(4-Chloro-3-fluoro-phenyl)-1-(5′-fluoro-3,4,5,6-tetrahydro-2H-[1,2′]bipyridinyl-4-carbonyl)-pyrrolidin-3-yl]-ethyl-carbamic acid 4-fluoro-phenyl ester]",1 nM
4,"CCN(C(=O)Oc1ccc(F)cc1)[C@@H]1CN(C(=O)C2CCN(c3ccc(C)cn3)CC2)C[C@H]1c1ccc(Cl)c(F)c1 [Example 47, [(3S,4R)-4-(4-Chloro-3-fluoro-phenyl)-1-(5′-methyl-3,4,5,6-tetrahydro-2H-[1,2′]bipyridinyl-4-carbonyl)-pyrrolidin-3-yl]-ethyl-carbamic acid 4-fluoro-phenyl ester]",2 nM
5,"CCN(C(=O)Oc1ccc(F)cc1)[C@@H]1CN(C(=O)C2CCN(c3ccc(C#N)cn3)CC2)C[C@H]1c1ccc(F)c(F)c1 [Example 48, [(3S,4R)-1-(5′-Cyano-3,4,5,6-tetrahydro-2H-[1,2′]bipyridinyl-4-carbonyl)-4-(3,4-difluoro-phenyl)-pyrrolidin-3-yl]-ethyl-carbamic acid 4-fluoro-phenyl ester]",2 nM
6,"CCN(C(=O)Oc1ccc(F)cc1)[C@@H]1CN(C(=O)C2CCN(c3ccc(Cl)cn3)CC2)C[C@H]1c1ccc(F)c(F)c1 [Example 49, [(3S,4R)-1-(5′-Chloro-3,4,5,6-tetrahydro-2H-[1,2′]bipyridinyl-4-carbonyl)-4-(3,4-difluoro-phenyl)-pyrrolidin-3-yl]-ethyl-carbamic acid 4-fluoro-phenyl ester]",5 nM
7,"CCN(C(=O)Oc1ccc(F)cc1)[C@@H]1CN(C(=O)C2CCN(c3ccc(C#N)nc3)CC2)C[C@H]1c1ccc(F)c(F)c1 [Example 51, [(3S,4R)-1-(6′-Cyano-3,4,5,6-tetrahydro-2H-[1,3′]bipyridinyl-4-carbonyl)-4-(3,4-difluoro-phenyl)-pyrrolidin-3-yl]-ethyl-carbamic acid 4-fluoro-phenyl ester]",2 nM
8,"CCN(C(=O)Oc1ccc(F)cc1)[C@@H]1CN(C(=O)C2CCN(C(=O)C3(C)CC3)CC2)C[C@H]1c1ccc(F)c(F)c1 [Example 52, {(3S,4R)-4-(3,4-Difluoro-phenyl)-1-[1-(1-methyl-cyclopropanecarbonyl)-piperidine-4-carbonyl]-pyrrolidin-3-yl}-ethyl-carbamic acid 4-fluoro-phenyl ester]",15 nM
9,"CCN(C(=O)Oc1ccc(F)cc1)[C@@H]1CN(C(=O)C2CCN(c3cc(C#N)ccn3)CC2)C[C@H]1c1ccc(F)c(F)c1 [Example 53, [(3S,4R)-1-(4′-Cyano-3,4,5,6-tetrahydro-2H-[1,2′]bipyridinyl-4-carbonyl)-4-(3,4-difluoro-phenyl)-pyrrolidin-3-yl]-ethyl-carbamic acid 4-fluoro-phenyl ester]",16 nM

# Same assay, conditions: read-out: Data Ki (hNK-3 receptor affinity)
row,Compound,Ki
1,"CCN(C(=O)Oc1ccc(F)cc1)[C@@H]1CN(C(=O)C2CCN(c3cc(C#N)ccn3)CC2)C[C@H]1c1ccc(Cl)c(F)c1 [Example 45, [(3S,4R)-4-(4-Chloro-3-fluoro-phenyl)-1-(4′-cyano-3,4,5,6-tetrahydro-2H-[1,2′]bipyridinyl-4-carbonyl)-pyrrolidin-3-yl]-ethyl-carbamic acid 4-fluoro-phenyl ester]",3 nM
